Measurements taken from patent US7820379B2, “Process for high throughput screening of CpG-based immuno-agonist/antagonist” (Coley Pharmaceutical GmbH, priority 2000, dated 2010).

Assays:
[1] = test system: plasmacytoid DC (CD123+DC); assay: Cytokine production by plasmacytoid dendritic cells (ELISA); type: cell-based, human; settings: purified CD123+DC; ODN 2 μM, LPS 100 ng/ml
Method: (§1) Human dendritic cells (DC) have been claimed to be responsive to CpG-DNA. […] The converse was true for stimulation of monocyte-derived dendritic cells (MDDC) (FIG. 8 and unpublished data). […] IL-8 and TNF concentration was determined by enzyme-linked immunosorbent assay (ELISA). The CD123+DC response was DNA- and CpG-motif restricted. […] Due to this segregated response we analyzed TLR expression.

[2] = test system: human B cells; assay: Human B cell proliferation by 3H-thymidine uptake; type: cell-based; settings: purified human B cells, day two; E. coli DNA 50 μg/ml, ODN 2 μM
Text: Bacterial DNA has been described as a mitogen for both murine and human B cells. Although LPS is also mitogenic for murine B cells, it is generally accepted that LPS is not a mitogen for human B cells. […] B cell proliferation was monitored at day two by ^3H-thymidine uptake.

[3] = test system: monocyte-derived dendritic cells (MDDC); assay: Cytokine production by monocyte-derived dendritic cells (ELISA); type: cell-based, human; settings: purified MDDC; ODN 2 μM, LPS 100 ng/ml
Method: as §1

[4] = biological target: T1, human TLR9 (Homo sapiens, UniProt Q9NR96, H530R/Q688R); assay: IL-8 production by ELISA in 293 cells transfected with human TLR9; type: cell-based; settings: 293 cells transiently transfected with hTLR9 alone; 48 h; ODN 2 μM, LPS 100 ng/ml
T1 construct: expressed in transfected cells
T1 sequence (Q9NR96 26-1032 H530R/Q688R): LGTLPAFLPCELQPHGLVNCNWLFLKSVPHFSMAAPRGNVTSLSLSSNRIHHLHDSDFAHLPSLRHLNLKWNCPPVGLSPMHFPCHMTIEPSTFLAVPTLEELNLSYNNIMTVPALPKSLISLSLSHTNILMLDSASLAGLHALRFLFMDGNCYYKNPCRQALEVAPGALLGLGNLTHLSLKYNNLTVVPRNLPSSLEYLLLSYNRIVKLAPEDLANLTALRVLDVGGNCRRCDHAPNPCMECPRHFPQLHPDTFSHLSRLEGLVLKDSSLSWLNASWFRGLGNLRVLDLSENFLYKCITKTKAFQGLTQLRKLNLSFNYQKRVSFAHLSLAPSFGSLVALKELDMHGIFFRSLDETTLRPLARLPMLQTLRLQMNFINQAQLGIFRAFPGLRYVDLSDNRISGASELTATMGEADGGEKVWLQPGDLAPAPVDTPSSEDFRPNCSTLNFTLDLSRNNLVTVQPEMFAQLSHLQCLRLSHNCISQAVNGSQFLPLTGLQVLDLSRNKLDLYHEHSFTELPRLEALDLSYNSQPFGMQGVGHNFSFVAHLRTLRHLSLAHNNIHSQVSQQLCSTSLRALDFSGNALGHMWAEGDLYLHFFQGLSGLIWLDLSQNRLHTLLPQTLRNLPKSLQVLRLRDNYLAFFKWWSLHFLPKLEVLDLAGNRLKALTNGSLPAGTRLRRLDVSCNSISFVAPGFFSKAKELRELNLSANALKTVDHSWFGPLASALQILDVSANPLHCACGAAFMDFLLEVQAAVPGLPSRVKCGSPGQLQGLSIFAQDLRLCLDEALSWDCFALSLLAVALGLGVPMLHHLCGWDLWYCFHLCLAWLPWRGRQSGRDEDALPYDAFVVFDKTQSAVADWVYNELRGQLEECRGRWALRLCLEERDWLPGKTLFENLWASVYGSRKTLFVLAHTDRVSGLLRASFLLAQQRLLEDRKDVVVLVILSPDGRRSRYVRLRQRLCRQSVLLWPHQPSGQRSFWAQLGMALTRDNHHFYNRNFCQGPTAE
Text: Since NF-κB activation is central to the IL-1/TLR signal transduction pathway (Medzhitov R et al., Mol Cell 2:253-258 (1998); Muzio M et al., J Exp Med 187:2097-2101 (1998)), cells were transfected with hTLR9 or co-transfected with hTLR9 and a NF-κB-driven luciferase reporter construct. Human fibroblast 293 cells were transiently transfected with (FIG. 1A) hTLR9 and a six-times NF-κB-luciferase reporter plasmid (NF-κB-luc, kindly provided by Patrick Baeuerle, Munich, Germany) or (FIG. 1B) with hTLR9 alone. After stimulus with CpG-ODN (2006, 2 μM, […], SEQ ID NO:112), GpC-ODN (2006-GC, 2 μM, […], SEQ ID NO:118), LPS (100 ng/ml) or media, NF-κB activation by luciferase readout (8 h, FIG. 1A) or IL-8 production by ELISA (48 h, FIG. 1B) were monitored. Results are representative of three independent experiments. […]
Because stable TLR9 transfectants mirrored primary cell responsiveness to CpG-DNA (FIGS. 4 and 5), it was hypothesized that stable transfectants could potentially discern species-specific CpG-motifs through TLR9 receptors. […] Depicted are both NF-κB-driven luciferase and IL-8 production as readout. […] After lysis of the cells luciferase can be detected photometrically based on an enzymatic reaction by luciferase which creates photons. IL-8 production was monitored using enzyme-linked immunosorbent assay (ELISA). […]

Row | Substance | cytokine production by CD123+DC [1] | B cell proliferation (3H-thymidine uptake) [2] | response of MDDC (IL-8, TNF) [3] | IL-8 production by ELISA [4]
1 | TCGTCGTTTTGTCGTTTTGTCGTT [ODN 2006] | produced IFN-α, TNF, GM-CSF, and IL-8 | proliferate | not | responded
2 | TGCTGCTTTTGTGCTTTTGTGCTT (listed as DNA, chemistry not fully specified) [ODN 2006-GC] | – | not | – | –
3 | lipopolysaccharide [LPS] | not | – | – | not
